Patent US10278971B2, “Fluorocyclopentenylcytosine methods of use” (Rexahn Pharmaceuticals, Inc., priority 2015, dated 2019)

Test system: MC38 murine colon cancer
Assay: Syngeneic MC38 murine colon cancer model, tumor growth
Type: in vivo
Procedure: Following the protocol described below, the effect of RX-3117 on tumor growth in a syngeneic model using female C57BL/6 mice with MC38 murine colon cancer was examined. Tumor growth was measured in a treatment group compared to a control (vehicle treated) group (see Table 1 below for dosing scheme and treatment regimen).
Briefly, the method is described as follows. The cells were harvested during exponential growth and re-suspended with phosphate buffered saline. Each test animal received a subcutaneous (s.c.) injection of 1×10^6 tumor cells into the right flank and tumor growth was monitored as the average tumor size approaches the target range of 60-100 mm^3. Dosing, based on Table 1 started as each animal reached this target range.
Tumors were measured in two dimensions using calipers, and volume calculated using the formula:
[…] The MTV (n), the median tumor volume for the number of animals, n, on Day 45, was determined for each group. Percent tumor growth inhibition (% TGI) is defined as the difference between the MTV of the designated control group (vehicle administration) and the MTV of the drug-treated group, expressed as a percentage of the MTV of the control group:
The data set for TGI analysis includes all animals in a group, except those that died due to treatment-related (TR) or non-treatment-related (NTR) causes. An agent that produces at least 60% TGI in this assay is considered to be potentially therapeutically active.
Treatment efficacy was determined from the number of regression responses. Treatment may cause partial regression (PR) or complete regression (CR) of the tumor in an animal. In a PR response, the tumor volume is 50% or less of its D1 volume for three consecutive measurements during the course of the study, and equal to or greater than 13.5 mm^3 for one or more of these three measurements. In a CR response, the tumor volume is less than 13.5 mm^3 for three consecutive measurements during the course of the study. Any animal with a CR response on the last day of the study was additionally classified as a tumor-free-survivor.
For toxicity assessments, animals were weighed daily for the first five days of the study and twice weekly thereafter. The mice were observed frequently for overt signs of any adverse, treatment-related side effects, and clinical signs of toxicity are recorded when observed.
Acceptable toxicity is defined as a group mean body-weight loss of less than 20% during the study and not more than one treatment-related (TR) death among ten treated animals. Any dosing regimen resulting in greater toxicity is considered above the maximum tolerated dose (MTD). […]

[1] = Day 45, N=10 per group, same regimens

Nc1ccn([C@@H]2C(F)=C(CO)[C@@H](O)[C@H]2O)c(=O)n1 [RX-3117, 4-amino-1-((1S,4R,5S)-2-fluoro-4,5-dihydroxy-3-hydroxymethyl-cyclopent-2-enyl)-1H-pyrimidin-2-one]
CR: No. of Complete Regressions [1]: 0 | PR: No. of Partial Regressions [1]: 0 | TFS: No. of Tumor Free Survivors [1]: 0 | TGI Day 28 (tumor growth inhibition) (female C57BL/6 mice, MC38 s.c., RX-3117 60 mg/kg po (5/2) x 3, anti-PD-1 RMP1-14 100 μg/animal ip biwk x 2, 60 mg/kg): 80%
